Reference: patent US10662193B2, “Carbazole and carboline compounds for use in the diagnosis, treatment, alleviation or prevention of disorders associated with amyloid or amyloid-like proteins” (AC IMMUNE SA, priority 2014, dated 2020)
pKd: −log10 of the molar value.

Experiments:
[1] = target: T1, in vitro aggregated Abeta1-42 (Homo sapiens, UniProt P05067); experiment: Assay 2 (filter trap): [3H]RefA radio-binding assay, Kd on aggregated Abeta1-42; details: Table 23; aggregated Abeta1-42 versus AD brain-enriched PHF
T1 construct: Abeta1-42 (Bachem, Switzerland) peptide films were re-suspended in 1% DMSO; purchased Bachem, Switzerland
T1 sequence (P05067 672-713 limits assumed): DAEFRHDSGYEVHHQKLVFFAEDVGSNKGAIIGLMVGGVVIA
Protocol: Preparation of Full-Length Tau and Abeta1-42 Aggregates
Recombinant human full-length Tau441 (flTau) was expressed in bacteria and purified in the laboratory of Professor Hilal Lashuel (EPFL, Switzerland). A solution of 8 μM (400 μg/mL) flTau in PBS, 10 μM DTT and 5 μM heparin (all from Sigma-Aldrich) was gently mixed (cradled) for 3 days at 37° C. Cradled flTau aggregates were used at a final concentration of 20 μg/mL in all binding assays. Abeta1-42 (Bachem, Switzerland) peptide films were re-suspended in 1% DMSO and diluted in PBS to a 33 μM (150 μg/mL) suspension that was sonicated until complete dissolution. Aggregation process was done at 37° C. for 24 hours. […]
AD brain-enriched PHF were diluted 1/80 (with an estimated tau concentration of 62.5 ng/ml and incubated with [^3H]RefA at different concentrations ranging from 50 nM to 1.25 nM. The reaction was performed in a final volume of 70 μL PBS with 2.8% DMSO, for 45 min at 37° C. 30 μL of samples in duplicates were then filtered under vacuum on a GF/B filter plate (PerkinElmer 6005177) to trap the PHF with the bound radio-ligand, and washed three times with PBS. The GF/B filters were then vacuum-dried, 20 μL scintillation liquid (PerkinElmer 1200-436) was added in each well, and the filters were analyzed on a Microbeta Trilux device. […] Specific binding was calculated by subtracting the non-specific signal to the total signal. […]

[2] = tested on: tau tangles/Aβ plaques on AD brain sections; experiment: Assay 1: direct staining of human Alzheimer's disease brain sections (fluorescence); assay type: binding; details: 100 μM; FIG. 1
Procedure, shortened: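 Frozen […] amygdala sections from Braak V-VI AD donors, PFA-fixed, incubated with compound at 100 μM in 50% ethanol for 20 min at room temperature in the dark. Sudan Black quenched autofluorescence, then staining detected by fluorescence microscopy.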

AD brain-enriched PHF = AD brain-enriched PHF (Homo sapiens, UniProt P10636); experiment: Assay 2 (filter trap): radio-binding assay, determination of the dissociation constant (Kd) on PHF; details: tritiated ligand 1.25-50 nM, PHF diluted 1/80, 45 min 37° C.
Sequence of AD brain-enriched PHF (P10636 623-708 limits assumed): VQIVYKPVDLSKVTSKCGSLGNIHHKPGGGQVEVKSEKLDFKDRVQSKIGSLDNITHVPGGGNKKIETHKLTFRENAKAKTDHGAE
Protocol: Enrichment of Paired Helical Filaments (PHF's) from Human Alzheimer's Disease Brain
50 g of frontal lobe tissue from post-mortem brain of an Alzheimer's disease (AD) patient were obtained from the London Tissue Bank. The patient was a […] and died […]. The brain sample was collected 5 hours post-mortem and characterized for Braak disease stage (Braak, H.; Braak, E. Acta Neuropathol., 1991, 82, 239-259) as stage VI. […]
AD brain-enriched PHF were diluted 1/80 (with an estimated tau concentration of 62.5 ng/ml and incubated with [^3H]RefA at different concentrations ranging from 50 nM to 1.25 nM. The reaction was performed in a final volume of 70 μL PBS with 2.8% DMSO, for 45 min at 37° C. 30 μL of samples in duplicates were then filtered under vacuum on a GF/B filter plate (PerkinElmer 6005177) to trap the PHF with the bound radio-ligand, and washed three times with PBS. The GF/B filters were then vacuum-dried, 20 μL scintillation liquid (PerkinElmer 1200-436) was added in each well, and the filters were analyzed on a Microbeta Trilux device. […] Specific binding was calculated by subtracting the non-specific signal to the total signal. […] The Kd values were calculated by nonlinear regression, one site specific binding using Prism V5 (GraphPad). […]

amyloid-beta = experiment: Autoradiography on human brain sections with an 18F amyloid binding compound (selectivity); details: FIG. 13
Protocol: 18 micron thick frozen human brain slices and 6 micron thick human FFPE brain slices from the frontal and/or temporal lobes of AD patients were examined via autoradiography. Brain sections were equilibrated for at least 1 h in 1×PBS solution prior to use in the experiment. Each brain section was covered with a solution of the F-18 labeled tracer (200 Bq/μl, 500 μl) in 1×PBS. For blocking experiments with the corresponding 19F-labeled compound, an excess of the blocking compound was mixed with the 18F-compound to yield an end concentration of 10 μM. The brain sections were allowed to incubate with the tracer solution at room temperature for 1 h, drained afterwards and placed in a slide holder. The slides were then washed sequentially with 1×PBS for 1 min; 70% EtOH in 1×PBS for 2 min; 30% EtOH in 1×PBS for 2 min; and 1×PBS for 1 min. The slides were allowed to air-dry before being placed on Fuji imaging plates for overnight exposure. The imaging plates were scanned and the signal was measured using Fuji software to produce an autoradiographic image of the brain section. Representative examples of autoradiography studies with ^18F-178, ^18F-189, ^18F-161, ^18F-95, ^18F-168, ^18F-146, ^18F-156, ^18F-159 are shown in FIGS. 9 to 12. […] Additionally, selectivity was determined by using a tracer binding to amyloid-beta.

SMILES	Fold increase on Abeta1-42 vs PHF [1]	direct staining of tau tangles on AD brain section [2]	pKd (AD brain-enriched PHF)	competition with ^18F amyloid binding compound (amyloid-beta)
CNc1ccc(-c2ccc3ccc(O)cc3n2)cc1 [RefA]	5	direct staining of tau tangles	7.46	–
Cn1c2ccncc2c2ccc(Nc3cccc(OCC[18F])c3)nc21 [^18F-44]	–	–	–	no competition
Cn1c2ccncc2c2ccc(Nc3cncc(OCC[18F])c3)nc21 [^18F-59]	–	–	–	no competition
